Like-named read-outs stand apart in the source and are kept apart here.
Assay: Mouse PK&BBB (pharmacokinetics and brain penetration)
Assay type: in vivo, CD-1 mice
Procedure: In this assay, the pharmacokinetic characteristics and ability to penetrate the blood-brain barrier of the compounds of the present application were assayed after administration of some of the compounds of the present application to SD rats, CD-1 mice or beagle dogs by single oral administration and intravenous injection.
(§1) 1. Intravenous (IV) injection group: an appropriate amount of the assay compound was weighed, and completely dissolved in an appropriate volume of vehicle. The mixture was stirred, vortexed and/or sonicated. Once a solution was obtained, the vehicle was gradually added to a final volume to reach the target concentration. The solution was vortexed, and sonicated to obtain a homogeneous solution. The solution was filtered through a 0.22 m PVDF membrane.
as §1, with “2. Oral (PO)” for “1. Intravenous (IV) injection”, “solution.” for “solution. The solution was filtered through a 0.22 m PVDF membrane.”
Meanwhile, the IV group was not fasted and the PO group was fasted overnight (>12 hrs) and given food 2 hrs after drug administration. All animals had free access to water. The dosing regimen and pharmacokinetic sampling regimen are given in Table 10 and Table 11 below, respectively.
Mice were administered according to the above protocol, and blood and brain tissue samples were collected and processed at predetermined time points (collection and processing were performed according to conventional methods in the art).
The brain was weighed and homogenized by adding 4 times of ultrapure water. Six times volume of acetonitrile was added respectively to the whole blood samples and brain homogenate (20 times volume of acetonitrile was added to the whole blood sample of mouse PK). The mixture was vortexed for 1 min and then centrifuged at 4° C., 4500 rpm for 15 min. According to the instrument response, the supernatant was diluted with diluent and the sample was analyzed by LC/MS.
Pharmacokinetic parameters were calculated using WinNonlin software. The following pharmacokinetic parameters were calculated if appropriate plasma/whole blood drug concentration-time data were available: CL (clearance); Vd (apparent volume of distribution); T1/2 (elimination half-life time); Cmax (peak concentration); Tmax (time to peak); AUC (area under plasma drug concentration-time curve); MRT (mean retention time); F % (bioavailability).

[1] = CD-1, mouse, whole blood, iv, 2 mg/kg, IV 2 mg/kg, read-out: Blood drug concentration
[2] = CD-1, mouse, whole blood, po, 20 mg/kg, PO 20 mg/kg, read-out: Blood drug concentration

Kp at 2 h (CD-1, brain / whole blood, PO 20 mg/kg, 2 h after administration, read-out: Brain/blood ratio): 1.85
concentration at 2 h (CD-1, mouse, brain, po, 20 mg/kg, PO 20 mg/kg, 2 h after administration, read-out: Brain concentration): 244 ng/g
concentration at 0 h [1]: 0 ng/mL
concentration at 0.083 h (CD-1, mouse, whole blood, iv, 2 mg/kg, IV 2 mg/kg, 0.083 hr, read-out: Blood drug concentration): 632 ± 86 ng/mL
concentration at 0.25 h [1]: 323 ± 81 ng/mL
concentration at 0.5 h [1]: 150 ± 53 ng/mL
concentration at 1 h [1]: 60.7 ± 28.5 ng/mL
concentration at 2 h (CD-1, mouse, whole blood, iv, 2 mg/kg, IV 2 mg/kg, 2 hr, read-out: Blood drug concentration): 12.3 ± 8.4 ng/mL
concentration at 4 h [1]: 1.77 ± 1.12 ng/mL
concentration at 7 hr [1]: 0.854 ng/mL
concentration at 0 h [2]: 0 ng/mL
concentration at 0.25 h [2]: 284 ± 26 ng/mL
concentration at 0.5 h [2]: 405 ± 46 ng/mL
concentration at 1 h [2]: 399 ± 77 ng/mL
concentration at 2 h (CD-1, mouse, whole blood, po, 20 mg/kg, PO 20 mg/kg, 2 hr, read-out: Blood drug concentration): 163 ± 2 ng/mL
concentration at 4 h [2]: 34.9 ± 19 ng/mL
concentration at 7 hr [2]: 4.85 ± 3.83 ng/mL
concentration at 2 h (CD-1, mouse, whole blood, po, 20 mg/kg, PO 20 mg/kg, whole blood, 2 h after administration, read-out: Blood drug concentration): 132 ng/mL
AUC(0-inf) (CD-1, whole blood, IV 2 mg/kg): 308 ± 82 ng·h/mL
AUC(0-t) (CD-1, whole blood, IV 2 mg/kg): 307 ± 82 ng·h/mL
Vd (CD-1, whole blood, IV 2 mg/kg): 6.97 ± 1.13 L/kg
half-life (CD-1, whole blood, IV 2 mg/kg): 45.3 ± 17.9 min
clearance (CD-1, whole blood, IV 2 mg/kg, read-out: Cl—obs): 114 ± 30.5 mL/min/kg
AUC(0-inf) (CD-1, whole blood, PO 20 mg/kg): 869 ± 57 ng·h/mL
AUC(0-t) (CD-1, whole blood, PO 20 mg/kg): 861 ± 54 ng·h/mL
Cmax (CD-1, whole blood, PO 20 mg/kg): 421 ± 64 ng/mL
Tmax (CD-1, whole blood, PO 20 mg/kg): 50 ± 17.3 min
half-life (CD-1, whole blood, PO 20 mg/kg): 58 ± 12.5 min
bioavailability (CD-1, whole blood, PO 20 mg/kg vs IV 2 mg/kg): 28.2 ± 1.9%
SMILES: O=C(C1CCN(c2cc(-c3cc(OCCCO)ccc3F)ccn2)CC1)N1N=CC[C@H]1c1cc(F)cc(F)c1 (racemic) [Example 40]
